Measured values: US20160109459A1, “Compositions And Methods For Heparan Sulfate As A Biomarker For Transplant Rejection” (Duke University, priority 2012, published 2016)

How the values were obtained:
human TLR4 = molecular target: T1, human TLR4 (Homo sapiens, UniProt O00206); assay: NF-κB dual luciferase reporter assay in HEK TLR4-MD2-CD14 cells; assay type: cell-based; settings: HS 100 μg/mL, 6 hours, TLR4 expressing cell lines
T1 construct: expressed in transfected cells; host or cells: HEK 293 (gift from Dr. Michael Fessler, NIEHS)
Experimental: HEK cell lines stably expressing CD14 and MD2 alone (HEK MD2-CD14), or co-expressed with human TLR2 (HEK TLR2-MD2-CD14) or human TLR4 (HEK TLR4-MD2-CD14) were transfected with a plasmid encoding firefly luciferase (F) under control of the NF-κB promoter along with a plasmid expressing Renilla luciferase (R) under control of the thymidine kinase promoter as a transfection control. Cell lines were cultured for 6 hours with media alone, LPS (100 ng/mL), HS (100 μg/mL), or Pam3CSK4 (2 μg/mL). FIG. 5A is a graph showing the ratio of F/R was measured by dual luciferase reporter assay to determine NF-κB activation of lysed cells, *p<0.05 compared with media alone. FIG. 5B is a graph showing results supernatants analyzed for IL-8 production by ELISA. […]
Luciferase reporter assay: Luciferase activity was measured using the Dual-Luciferase Reporter Assay (Promega, Madison, Wis., USA) according to the manufacture's recommended protocol. Luminescence was measured using an LMax Luminometer (Molecular Devices, Sunnyvale, United States).
A heterodimer of different TLRs is required for some PAMPs. […] The ratio of luminescence produced by firefly luciferase to Renilla luciferase (F/R) was then measured in response to media alone, LPS, HS, and Pam3CSK4. The production of IL-8, which is downstream of NF-κB activation, by ELISA was also measured. […]

BALB/c DCs = assay: DC maturation: surface expression of CD40 and CD80 by FACS; assay type: cell-based, mouse; settings: 24 h; HS 100 μg/mL, Pam3CSK4 2 μg/mL
Experimental: FIG. 3A is a graph showing WT, TLR4^−/−, or MyD88^−/− BALB/c DCs (2×10^5/well) were stimulated with LPS (100 ng/mL), HS (100 μg/mL), or Pam3CSK4 (2 μg/mL), or left unstimulated (media) for 24 hours, and measured for surface expression of co-stimulatory molecules CD40 and CD80 by FACS analysis. FIGS. 3B and 3C are graphs showing WT, MyD88^−/−, and TLR4^−/− BALB/c cultured DCs were co-cultured with media alone, LPS, HS, or Pam3CSK4 as in (A) and culture supernatants were tested for IL-6 (B) and IL-12 (C) by ELISA. Data are representative of three independent experiments; *p<0.05 compared with media alone.
To investigate how activation of DCs by HS promoted the alloreactive T cell response, an as DC maturation and production of pro-inflammatory cytokines are key initial events in triggering adaptive immune responses, the ability of HS to upregulate DC expression of costimulatory molecules, CD40 and CD80, and pro-inflammatory cytokines, IL-6 and IL-12 was tested.
Antibodies and flow cytometry: Anti-CD40 (HM40-3), anti-CD80 (16-10A1), anti-Thy1.1 (OX-7), anti-Ly5.1 (A20) anti-IFN-γ (XMG1.2), rat IgG1 isotype (R3-34), and the BrdU Flow Kit (FITC-labeled) were from BD Biosciences (San Jose, Calif., USA). Intracellular IFN-γ staining was performed as previously described. (Brennan, T. V. et al. (2008) Transplantation 85:247-55). For in vivo BrdU labeling, mice were injected with 50 μg BrdU/gm i.p. 1 hour prior to analysis. Collection of flow cytometric data was acquired using a FACSCanto (BD Biosciences), and events were analyzed using FloJo software (Tree Star, Inc., Ashland, United States).

T1 sequence (O00206 24-839): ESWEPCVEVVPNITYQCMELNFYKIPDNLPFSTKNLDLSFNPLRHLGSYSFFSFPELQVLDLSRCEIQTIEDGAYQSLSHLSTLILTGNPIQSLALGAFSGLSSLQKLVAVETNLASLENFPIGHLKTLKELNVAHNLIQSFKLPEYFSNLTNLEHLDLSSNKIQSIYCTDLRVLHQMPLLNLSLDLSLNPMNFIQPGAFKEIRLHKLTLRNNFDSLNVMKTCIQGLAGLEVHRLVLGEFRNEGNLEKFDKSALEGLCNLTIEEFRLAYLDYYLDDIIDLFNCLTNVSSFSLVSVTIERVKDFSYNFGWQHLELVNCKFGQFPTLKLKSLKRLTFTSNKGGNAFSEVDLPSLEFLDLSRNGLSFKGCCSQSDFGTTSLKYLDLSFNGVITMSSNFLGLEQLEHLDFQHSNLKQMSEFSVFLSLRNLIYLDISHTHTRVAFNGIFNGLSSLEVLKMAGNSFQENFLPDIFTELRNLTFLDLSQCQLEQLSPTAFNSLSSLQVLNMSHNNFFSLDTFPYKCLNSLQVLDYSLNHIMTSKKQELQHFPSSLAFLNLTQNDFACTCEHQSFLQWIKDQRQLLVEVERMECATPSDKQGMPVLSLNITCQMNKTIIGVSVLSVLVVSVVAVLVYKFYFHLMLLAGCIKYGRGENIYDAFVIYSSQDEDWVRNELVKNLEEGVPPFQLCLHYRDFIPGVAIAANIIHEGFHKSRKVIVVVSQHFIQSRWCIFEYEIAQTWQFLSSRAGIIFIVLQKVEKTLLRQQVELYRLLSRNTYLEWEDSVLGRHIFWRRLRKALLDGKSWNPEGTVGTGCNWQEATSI
T1 sequence (Q9Y6Y9 17-160 partner limits assumed): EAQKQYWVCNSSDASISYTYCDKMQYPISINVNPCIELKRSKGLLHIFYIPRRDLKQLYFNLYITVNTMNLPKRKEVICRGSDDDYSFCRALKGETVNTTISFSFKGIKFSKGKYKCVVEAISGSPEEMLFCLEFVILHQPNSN

NF-κB activation (ratio F/R) (human TLR4): caused NF-κB activation
Substance: heparan sulfate [HS]
upregulation of CD40 and CD80 on WT DCs (BALB/c DCs): upregulation
